Assay results as given in US7838543B2, “MCH receptor antagonists” (Eli Lilly and Company, priority 2005, dated 2010).
Read-outs that look alike come from different tables or passages of the source.

What was measured:
[1] = biological target: T1, human MCHR1 (Homo sapiens, UniProt Q99705); assay: 125I-MCH competitive binding assay with clone 43 membranes; conditions: Ki from IC50 by Cheng-Prusoff
T1 construct: The full-length cDNA for human MCHR1 was cloned from a human adult brain cDNA library; expressed in transfected cells; host or cells: AV12 cells previously transfected with Galpha15
T1 sequence (Q99705 whole entry): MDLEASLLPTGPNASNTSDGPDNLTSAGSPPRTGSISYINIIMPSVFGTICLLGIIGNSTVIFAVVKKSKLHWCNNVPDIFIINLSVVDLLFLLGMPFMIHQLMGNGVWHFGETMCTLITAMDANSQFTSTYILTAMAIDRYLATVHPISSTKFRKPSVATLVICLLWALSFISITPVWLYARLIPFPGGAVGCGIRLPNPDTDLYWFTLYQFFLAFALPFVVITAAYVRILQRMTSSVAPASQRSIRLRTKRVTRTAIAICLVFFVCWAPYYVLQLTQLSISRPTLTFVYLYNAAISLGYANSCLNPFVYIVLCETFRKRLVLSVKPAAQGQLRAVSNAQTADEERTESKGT
Description: The full-length cDNA for human MCHR1 was cloned from a human adult brain cDNA library (Edge Biosystems, Cat. 38356) by standard polymerase chain reaction (PCR) methodology employing the following primers: sense, 5′-GCCACCATGGACCT GGAAGCCTCGCTGC-3′; anti-sense, 5′-[…]-3′. The PCR reaction was performed in a final volume of 50 μl containing 5 μl of a 10× stock solution of PCR buffer, 1 μl of 10 mM dNTP mixture (200 μM final), 2 μl of 50 mM Mg(SO4) (2 mM final), 0.5 μl of 20 μM solutions of each primer (0.2 μM final), 5 μl of template cDNA containing 0.5 ng DNA, 0.5 μl of Platinum Taq High Fidelity DNA polymerase (Gibco Life Technologies) and […] of H2O. PCR amplification was performed on a Perkin Elmer 9600 thermocycler. After denaturation for 90 sec at 94° C., the amplification sequence consisting of 94° C. for 25 sec, 55° C. for 25 sec and 72° C. for 2 min was repeated 30 times, followed by a final elongation step at 72° C. for 10 min. The desired PCR product (1.1 Kb) was confirmed by agarose gel electrophoresis and the band was extracted from the gel by Geneclean (Bio101) following the manufacturer's instructions. Following extraction, the cDNA fragment was cloned into pCR2.1-TOPO plasmid (Invitrogen Corp) to confirm the identity and sequence.
In order to generate cell lines stably expressing MCHR1, the insert was then subcloned into the Xba I and Not I sites of pcDNA(+)-3.1-neomycin (Invitrogen). After purification by Qiagen Maxi-prep kit (QIAGEN, Inc.), the plasmid was transfected by Fugene 6 (Roche Applied Science) into AV12 cells that had been previously transfected with the promiscuous G protein Gα15. The transfected cells were selected by G418 (800 μg/ml) for 10-14 days and single colonies were isolated from culture plates. The G418-resistant colonies were further selected for MCHR1 expression by measuring MCH-stimulated Ca^2+ transients with a fluorometric imaging plate reader (FLIPR, Molecular Devices).
Both the ^125I-MCH binding and functional GTPγ^35S binding assays employed membranes isolated from a clone designated as clone 43. Typically, cells from 20 confluent T225 flasks were processed by washing the monolayers in cold phosphate-buffered saline (PBS), scraping the cells into same and re-suspending the cell pellet in 35 ml of 250 mM Sucrose, 50 mM HEPES, pH 7.5, 1 mM MgCl2, 24 μg/ml DNase I, and protease inhibitors (1 Complete® tablet, per 50 ml of buffer prepared, Roche Diagnostics). […]
Binding of compounds to MCHR1 was assessed in a competitive binding assay employing ^125I-MCH, compound and clone 43 membranes. […] Non-specific binding is assessed in the presence of 0.1 μM unlabeled MCH. Bound ^125I-MCH is determined by placing sealed plates in a Microbeta Trilux (Perkin Elmer Life and Analytical Sciences Inc) and counting after a 12 hr delay. […]

[2] = test system: diet-induced obese male Long-Evans rats; assay: 3 day body weight change in diet-induced obese rats after oral dosing; type: in vivo, rat; conditions: 10 mg/kg oral once a day for 3 days, 3 day cumulative, relative to vehicle control
Description: Vehicle consisted of 1% CMC and 0.25% PS-80 in water.
Animals were individually housed in a temperature regulated room (24° C.) with a reverse 12 hour light/dark cycle (dark 10:00/22:00). Water and food (Teklad 95217, Harlan, Wis.) were available ad libitum. Compounds were dosed orally once a day before onset of dark for 3 days. Daily food intake and body weight change were measured for the 3 day period.

Ki ([1]; read-out: Average MCHR1 Ki)	SMILES	Body weight reduction @ 10 mg/Kg versus vehicle control. Data expressed in grams. [2]	Ki ([1]; Average MCHR1 Ki (nM))
8.79 nM	CN1CCC(CN(C)c2nc3cc(NC(=O)c4ccc(-c5ccc(F)cc5)cc4)ccc3o2)C1 (single isomer, unassigned) [Example 34, 4′-Fluoro-biphenyl-4-carboxylic acid {2-[methyl-(1-methyl-pyrrolidin-3-ylmethyl)-amino]-benzooxazol-5-yl}-amide]	5.8 grams	–
16.7 nM	CN1CCC(N(C)c2nc3ccc(NC(=O)c4ccc(-c5ccc(F)cc5)cc4)cc3s2)C1 (single isomer, unassigned) [Example 106, 4′-Fluoro-biphenyl-4-carboxylic Acid {2-[methyl-(1-methyl-pyrrolidin-3-yl)-amino]-benzothiazol-6-yl}-amide]	8.4 grams	–
15.3 nM	CN1CCC(N(C)c2nc3ccc(NC(=O)c4ccc(-c5ccc(F)cc5)cc4)cc3s2)C1 (single isomer, unassigned) [Example 107, 4′-Fluoro-biphenyl-4-carboxylic Acid {2-[methyl-(1-methyl-pyrrolidin-3-yl)-amino]-benzothiazol-6-yl}-amide]	7.1 grams	–
–	CN1CCC(N(C)c2nc3cc(NC(=O)c4ccc(-c5ccc(F)cc5Cl)cc4)ccc3o2)CC1.Cl [Example 157, 2′-Chloro-4′-fluoro-biphenyl-4-carboxylic acid {2-[methyl-(1-methyl-piperidinyl)-amino]-benzooxazol-5-yl}-amide Hydrochloride]	18 grams	7.5 nM
